Patent US20230165252A1, “ACTIVE COMPOUND COMBINATIONS” (Bayer Aktiengesellschaft, priority 2020, published 2023)

assay: Measurement of Log P values by HPLC on reversed phase columns (EEC directive 79/831 Annex V.A8), methods [a], [b], [c]; format: physicochemical; conditions: HPLC method [a]
Description: Measurement of Log P values as provided herein was performed according to EEC directive 79/831 Annex V.A8 by HPLC (High Performance Liquid Chromatography) on reversed phase columns with the following methods: • ^[a]

SMILES | LogP
O=C(NCC(F)c1ccc(Br)cc1Cl)c1cc(Cl)nnc1Oc1cccc(C2CC2)c1 (racemic) [I-362] | 4.87^[a]
Cc1nnc(Oc2cccc(C(F)F)c2F)c(C(=O)NCC(F)c2ccc(Br)cc2Cl)c1C (racemic) [I-369] | 3.65^[a]

same assay, conditions: HPLC on reversed phase column, method [a]

SMILES | LogP
Cc1cc(C(=O)NC2CCOc3c(C)cccc32)c(Oc2cccc(C(F)(F)F)c2)nn1 (racemic) [I-107] | 3.65^[a]
Cc1ccc(C(F)CNC(=O)c2c(Oc3cccc(C4CC4)c3F)nnc(C)c2C)c(C)c1 (racemic) [I-836] | 3.78^[a]

same assay, conditions: method [a]

SMILES | LogP
Cc1ccc(C(F)(F)CNC(=O)c2c(Oc3cccc(C(F)(F)F)c3)nnc(Cl)c2NC2CC2C2CC2)c(C)c1 (mixture of isomers) [I-812] | 4.87^[a]
O=C(NC1CCCc2ccsc21)c1cc(Cl)nnc1Cl (racemic) [Compound 3-16] | 2.60^[a]
CC(NC(=O)c1cc(Cl)nnc1Cl)c1cn(C)c2ccccc12 (racemic) [Compound 3-18] | 2.71^[a]
Cc1ccc(C(F)CNC(=O)c2c(Cl)nnc(Cl)c2C)c(Cl)c1 (racemic) [Compound 3-23] | 3.22^[a]
O=C(NCC1CNc2ccccc21)c1cc(Cl)nnc1Oc1cccc(C(F)(F)F)c1 (racemic) [I-436] | 2.42^[a]
O=C(NC1CCCc2sc(Cl)cc21)c1cc(Cl)nnc1Oc1cccc(C(F)(F)F)c1 (racemic) [I-639] | 4.68^[a]
Cc1ccc(C(F)(F)CNC(=O)c2c(Oc3cccc(C(F)(F)F)c3)nnc(Cl)c2OCC2CC2(F)F)c(C)c1 (racemic) [I-683] | 4.95^[a]
O=C(NCC(F)c1ccc(Cl)cc1Cl)c1c(Oc2cccc(C3CC3)c2F)nnc(Cl)c1I (racemic) [I-758] | 4.73^[a]
Cc1ccc(C(F)(F)CNC(=O)c2cc([S+](C)[O-])nnc2Oc2cccc(C(F)(F)F)c2)c(C)c1 (racemic) [I-781] | 3.65^[a]
O=C(NCC(F)c1ccc(Cl)cc1Cl)c1c(Oc2cccc(C3CC3)c2F)nnc(Cl)c1O (racemic) [I-782] | 5.13^[a]
Cc1ccc(C(F)(F)CNC(=O)c2cc(C3CCOC3)nnc2Oc2cccc(C(F)(F)F)c2)c(C)c1 (racemic) [I-794] | 3.78^[a]

same assay, conditions: method [a]: LC-UV, acidic range, 0.1% formic acid in water and acetonitrile as eluent (10% to 95% acetonitrile); Table 3, compounds of formula (1)

SMILES | LogP
Cc1c(Cl)nnc(Oc2cccc(C3CC3(F)F)c2)c1C(=O)O (racemic) [Compound 1-105] | 1.69^[a]
Cc1c(Cl)nnc(Oc2cccc(C3CC3)c2F)c1C(=O)O [Compound 1-005] | 1.84^[a]
N#Cc1cc(C(=O)O)c(Oc2cccc(C(F)(F)F)c2)nn1 [Compound 1-007] | 1.74^[a]
Cc1nnc(Oc2cccc(C(F)(F)F)c2F)c(C(=O)O)c1C [Compound 1-009] | 1.40^[a]
CC(C)OC(=O)c1cc(Cl)nnc1Oc1cccc(F)c1F [Compound 1-011] | 3.65^[a]
O=C(O)c1cc(C2CC2)nnc1Oc1cccc(C(F)F)c1 [Compound 1-012] | 1.68^[a]
Cc1nnc(Oc2cccc(C(F)F)c2F)c(C(=O)O)c1C [Compound 1-013] | 0.96^[a]
C#Cc1cccc(Oc2nnc(Cl)cc2C(=O)O)c1 [Compound 1-017] | 1.50^[a]
Cc1nnc(Oc2cccc(Cl)c2)c(C(=O)O)c1C [Compound 1-018] | 0.80^[a]
Cc1cc(C(=O)O)c(Oc2cncc(C(F)(F)F)c2)nn1 [Compound 1-019] | 1.01^[a]
O=C(O)c1cc(-c2ccncc2Cl)nnc1Oc1cccc(C(F)F)c1F [Compound 1-020] | 1.86^[a]
O=C(O)c1cc(N2CCCC2)nnc1Oc1cccc(C(F)(F)F)c1 [Compound 1-021] | 1.08^[a]
O=C(O)c1cc(Cl)nnc1Oc1cccc(F)c1F [Compound 1-024] | 1.65^[a]
O=C(O)c1cc(Cl)nnc1Oc1cncc(C(F)(F)F)c1 [Compound 1-025] | 1.31^[a]
Cc1nnc(Oc2cccc(C3CC3)c2)c(C(=O)O)c1C [Compound 1-037] | 1.10^[a]
O=C(O)c1cc(C2CC2)nnc1Oc1cccc(C(F)(F)F)c1 [Compound 1-043] | 1.90^[a]
O=C(O)c1cc(Cl)nnc1Oc1cccc(Br)c1 [Compound 1-048] | 1.66^[a]
CC(C)OC(=O)c1cc(-n2ccnc2)nnc1Oc1cccc(C(F)(F)F)c1 [Compound 1-050] | 2.55^[a]
O=C(O)c1cc(-c2ccncc2Cl)nnc1Oc1cccc(F)c1F [Compound 1-053] | 1.22^[a]
O=C(O)c1cc(C(F)(F)F)nnc1Oc1cccc(C(F)(F)F)c1 [Compound 1-057] | 2.27^[a]
CC(C)OC(=O)c1cc(-c2ccncc2Cl)nnc1Oc1cccc(F)c1F [Compound 1-074] | 3.65^[a]
Cc1nnc(Oc2cccc(C3CC3)c2F)c(C(=O)O)c1C [Compound 1-077] | 1.31^[a]
COC(=O)c1c(Oc2cccc(C(F)(F)F)c2)nnc(Cl)c1-n1cccn1 [Compound 1-084] | 3.53^[a]
CC(=O)c1cccc(Oc2nnc(Cl)cc2C(=O)O)c1 [Compound 1-093] | 1.01^[a]
Cc1cc(C(=O)O)c(Oc2cccc(C(F)F)c2)nn1 [Compound 1-098] | 1.36^[a]
CC(C)OC(=O)c1cc(Cl)nnc1Oc1cncc(C(F)F)c1 [Compound 1-102] | 2.82^[a]

same assay, conditions: method [a]: LC-UV, acidic range, 0.1% formic acid in water and acetonitrile as eluent; Table 5, compounds of formula (2)

SMILES | LogP
NCC(F)c1ccc(I)cc1 (racemic) [Compound 2-05] | 0.73^[a]
Cc1cc(C(F)F)ccc1C(F)CN (racemic) [Compound 2-06] | 0.69^[a]
NCC(F)c1ccc(C2CC2)cc1Cl (racemic) [Compound 2-07] | 1.15^[a]

same assay, conditions: method [b]: LC-UV, neutral range, 0.001 molar ammonium acetate solution in water and acetonitrile as eluent (10% to 95% acetonitrile); Table 3, compounds of formula (1)

SMILES | LogP
O=C(O)c1cc(Cl)nnc1Oc1cccc(C(F)(F)F)n1 [Compound 1-031] | 0.69^[b]
O=C(O)c1cc(Cl)nnc1Oc1cncc(C2CC2)c1 [Compound 1-051] | 0.59^[b]

same assay, conditions: reversed-phase HPLC column, method [a]

SMILES | chromatographic logP
CC(=O)c1cc(C(=O)NCC(F)c2ccc(Br)cc2Cl)c(Oc2cccc(C(F)(F)F)c2)nn1 (racemic) [Compound I-605, 6-acetyl-N-[rac-2-(4-bromo-2-chloro-phenyl)-2-fluoro-ethyl]-3-[3-(trifluoromethyl)phenoxy]pyridazine-4-carboxamide] | 4.49

same assay, conditions: reversed-phase HPLC column, method [a]: LC-UV, acidic range, 0.1% formic acid in water and acetonitrile as eluent (10% to 95% acetonitrile); Table 3, compounds of formula (1)

SMILES | chromatographic logP
COC(=O)c1c(Oc2cccc(C(F)(F)F)c2)nnc(Cl)c1C1CC1 [Compound 1-001] | 3.94
Cc1c(Cl)nnc(Oc2cccc(Cl)c2)c1C(=O)O [Compound 1-002, 6-chloro-3-(3-chlorophenoxy)-5-methyl-pyridazine-4-carboxylic acid] | 1.39
CSc1cc(C(=O)O)c(Oc2cccc(C(F)(F)F)c2)nn1 [Compound 1-004, 6-methylsulfanyl-3-[3-(trifluoromethyl)phenoxy]pyridazine-4-carboxylic acid] | 2.25
COC(=O)c1c(Oc2cccc(C(F)F)c2F)nnc(C)c1C [Compound 1-006] | 2.64
COCCc1c(Cl)nnc(Oc2cccc(C(F)(F)F)c2)c1C(=O)O [Compound 1-026, 6-chloro-5-(2-methoxyethyl)-3-[3-(trifluoromethyl)phenoxy]pyridazine-4-carboxylic acid] | 1.74
COC(=O)c1c(Oc2cccc(Cl)c2)nnc(Cl)c1C [Compound 1-033, methyl 6-chloro-3-(3-chlorophenoxy)-5-methyl-pyridazine-4-carboxylate] | 3.37
CCOC(=O)c1cc(C)nnc1Oc1cncc(C(F)(F)F)c1 [Compound 1-036] | 2.37
COC(=O)c1c(Oc2cccc(Cl)c2)nnc(C)c1C [Compound 1-042] | 2.71
COC(=O)c1c(Oc2cccc(C(F)(F)F)c2)nnc(Cl)c1OC [Compound 1-046] | 3.52
COC(=O)c1c(Oc2cccc(C(F)(F)F)c2)nnc(Cl)c1Cl [Compound 1-049] | 3.86
COC(=O)c1c(Oc2cccc(C(F)F)c2F)nnc(Cl)c1Cl [Compound 1-055] | 3.51
CCOC(=O)c1c(Oc2cccc(C3CC3)c2)nnc(Cl)c1Cl [Compound 1-056] | 4.41
CCOC(=O)c1c(Oc2cccc(C(F)(F)F)c2)nnc(Cl)c1OCC [Compound 1-060] | 4.23
COC(=O)c1c(Oc2cccc(C(F)(F)F)c2F)nnc(Cl)c1Cl [Compound 1-064] | 3.96
C=Cc1c(Cl)nnc(Oc2cccc(C(F)(F)F)c2)c1C(=O)OC [Compound 1-069, methyl 6-chloro-3-[3-(trifluoromethyl)phenoxy]-5-vinyl-pyridazine-4-carboxylate] | 3.94
COC(=O)c1cc(Cl)nnc1Oc1cccc(C(F)(F)F)n1 [Compound 1-071] | 2.69
COC(=O)c1cc(Cl)nnc1Oc1cccc(C(F)(F)F)c1 [Compound 1-079] | 3.27
CCOC(=O)c1cc(SC)nnc1Oc1cccc(C(F)(F)F)c1 [Compound 1-083] | 3.96
COC(=O)c1c(Oc2cccc(C(F)(F)F)c2)nnc(Cl)c1-c1ccccc1 [Compound 1-085] | 4.25
COC(=O)c1cc(Cl)nnc1Oc1cncc(Br)c1 [Compound 1-086] | 2.33
CCOC(=O)c1cc(Cl)nnc1Oc1cncc(C(F)(F)F)c1 [Compound 1-088] | 3
COC(=O)c1cc(Cl)nnc1Oc1cccc(C2CC2)c1F [Compound 1-099] | 3.45
COC(=O)c1cc(C)nnc1Oc1cccc(C2CC2)c1F [Compound 1-100] | 2.89
COC(=O)c1c(Oc2cccc(C3CC3)c2F)nnc(Cl)c1C [Compound 1-101] | 3.7
CCOC(=O)c1cc(C)nnc1Oc1cccc(C2CC2)c1F [Compound 1-112] | 3.29

same assay, conditions: reversed-phase HPLC column; method [b]: LC-UV, neutral range, 0.001 molar ammonium acetate solution in water and acetonitrile as eluent (10% to 95% acetonitrile); Table 3, compounds of formula (1)

SMILES | chromatographic logP
CCOC(=O)c1cc(Cl)nnc1Oc1cncc(C2CC2)c1 [Compound 1-076] | 2.6
